Data taken from patent publication US4705900A, “Insecticidal alkenes” (Imperial Chemical Industries PLC, priority 1985, dated 1987).

Tests used:
Diabrotica balteata = test: mortality of rootworm larvae (DB), residual test; format: in vivo, Diabrotica balteata (rootworm larvae); settings: Diabrotica balteata, in Zea mays, 72 h, filter paper/maize seed, 3 days, read-out: grading of mortality, DB
Procedure: (§1) The activity of the Product was determined using a variety of insect pests. The Product was used in the form of liquid preparations containing 500 or 100 parts per million (ppm) by weight of the Product. The preparations were made by dissolving the Product in acetone and diluting the solutions with water containing 0.01% by weight of a wetting agent sold under the trade name "LISSAPOL" NX until the liquid preparations contained the required concentration of the Product. "Lissapol" is a Registered Trade Mark.
(§2) The test procedure adopted with regard to each pest was basically the same and comprised supporting a number of the pests on a medium which was usually a host plant or a foodstuff on which the pests feed, and treating either or both the pests and the medium with the preparations. The mortality of the pests was then assessed at periods usually varying from one to three days after the treatment.
(§3) The results of the tests are given in Table IV for each of the Products, at the rate in parts per million given in the second column as a grading of mortality designated as A, B or C wherein A indicates 80-100% mortality or knockdown, B indicates 50-79% mortality or knockdown and C indicates less than 50% mortality or knockdown.
(§4) In Table IV the pest organism used is designated by a letter code and the pests species, the support medium or food, and the type and duration of test is given in Table III.

Myzus persicae = test: mortality of aphids (MP), contact test; format: in vivo, Myzus persicae (aphids); settings: Myzus persicae, 48 h, leaf, 2 days, read-out: grading of mortality, MP
Procedure: as §1, §2, §3, §4

Blattella germanica = test: mortality of cockroach nymphs (BG), residual test; format: in vivo, Blattella germanica (cockroach nymphs); settings: Blattella germanica, 72 h, plastic pot, 3 days, read-out: grading of mortality, BG
Procedure: as §1, §2, §3, §4

Tetranychus urticae = test: mortality of red spider mites (TU), contact test; format: in vivo, Tetranychus urticae (red spider mites - adult); settings: Tetranychus urticae, 72 h, French bean leaf, 3 days, read-out: grading of mortality, TU
Procedure: as §1, §2, §3, §4
(red spider mites - adult)

Musca domestica [1] = test: knockdown of houseflies (MD/KD); format: in vivo, Musca domestica (houseflies - adults); settings: Musca domestica, cotton wool/sugar, 4 hours, read-out: grading of knockdown, MD/KD
Procedure: as §1, §2
In case of the species Musca domestica (housefly), additional tests to determine the knockdown effect of the compounds were performed.
as §3, §4

Musca domestica [2] = test: mortality of houseflies (MD), contact test; format: in vivo, Musca domestica (houseflies - adults); settings: Musca domestica, 24 h, cotton wool/sugar, 1 day, read-out: grading of mortality, MD
Procedure: as §1, §2, §3, §4

Heliothis viriscens = test: whole plant or invertebrate; format: in vivo, Heliothis viriscens (tobacco budworm); settings: in Gossypium hirsutum, 72 h, read-out: grading of mortality, HV
Procedure: as §1, §2, §3, §4

Chilo partellurs = test: mortality of stem borers (CP), residual test; format: in vivo, Chilo partellurs (Stem borers); settings: Chilo, 72 h, oil seed rape leaf, 3 days, read-out: grading of mortality, CP
Procedure: as §1, §2, §3, §4

Nilaparvata lugens = test: mortality of green leaf hopper (NL), contact test; format: in vivo, Nilaparvata lugens (brown planthopper); settings: Nilaparvata lugens, in Brassica oleracea, 144 h, cabbage leaf, 6 days, read-out: grading of mortality, NL
Procedure: as §1, §2, §3, §4

| SMILES | mortality at 500 ppm (Diabrotica balteata) [%] | mortality at 500 ppm (Myzus persicae) [%] | mortality at 500 ppm (Blattella germanica) [%] | mortality at 500 ppm (Tetranychus urticae) [%] | pest or weed control at 500 ppm (Musca domestica [1]) [%] | mortality at 500 ppm (Musca domestica [2]) [%] | mortality at 500 ppm (Heliothis viriscens) [%] | mortality at 500 ppm (Chilo partellurs) [%] | mortality at 500 ppm (Nilaparvata lugens) [%] | mortality at 100 ppm (Diabrotica balteata; 100 ppm) [%] | mortality at 100 ppm (Myzus persicae; 100 ppm) [%] | mortality at 100 ppm (Blattella germanica; 100 ppm) [%] | mortality at 100 ppm (Tetranychus urticae; 100 ppm) [%] | pest or weed control at 100 ppm (Musca domestica [1]; 100 ppm) [%] | mortality at 100 ppm (Musca domestica [2]; 100 ppm) [%] | mortality at 100 ppm (Heliothis viriscens) [%] | mortality at 100 ppm (Chilo partellurs; 100 ppm) [%] | mortality at 100 ppm (Nilaparvata lugens; 100 ppm) [%] |
| --- | --- | --- | --- | --- | --- | --- | --- | --- | --- | --- | --- | --- | --- | --- | --- | --- | --- | --- |
| Cc1ccc(C=CC(C)(C)COCc2cccc(Oc3ccccc3)c2)cc1 [Compound 14, 3,3-Dimethyl-1-(4-methylphenyl)-4-(3-phenoxybenzyloxy)but-1-ene] | 50 to 79 | < 50 | < 50 | < 50 | < 50 | < 50 | 80 to 100 | 80 to 100 | 50 to 79 |  |  |  |  |  |  |  |  |  |
| CC(C)(/C=C/c1ccc(F)cc1)COCc1ccc(F)c(Oc2ccccc2)c1 [Compound 6, 3,3-dimethyl-1-(4-fluorophenyl)-4-(4-fluoro-3-phenoxybenzyloxy)but-1-ene] | 80 to 100 | 80 to 100 | 80 to 100 | 50 to 79 | 80 to 100 | 80 to 100 | 80 to 100 | 80 to 100 | 80 to 100 |  |  |  |  |  |  |  |  |  |
| CC(C)(C=Cc1cc(Cl)cc(Cl)c1)COCc1cccc(Oc2ccccc2)c1 [Compound 15, 3,3-Dimethyl-1-(3,5-dichlorophenyl)-4-(3-phenoxybenzyloxy)but-1-ene] | < 50 | < 50 | < 50 | < 50 | < 50 | < 50 | < 50 | 80 to 100 | < 50 |  |  |  |  |  |  |  |  |  |
| CCOc1ccc(CCC(C)(C)COCc2cccc(Oc3ccccc3)c2)cc1 [Compound 33, 3,3-Dimethyl-1-(4-ethoxyphenyl)-4-(3-phenoxybenzyloxy)butane] | < 50 | < 50 | < 50 | < 50 | < 50 | < 50 | < 50 | 80 to 100 | < 50 |  |  |  |  |  |  |  |  |  |
| Fc1ccc(/C=C\C2(COCc3cccc(Oc4ccccc4)c3)CC2)cc1 [Compound 20, 1-[2-(4-fluorophenyl)ethen-1-yl]-1-(3-phenoxybenzyloxymethyl)cyclopropane] | < 50 | 50 to 79 | < 50 | < 50 | < 50 | < 50 | < 50 | 80 to 100 | < 50 |  |  |  |  |  |  |  |  |  |
| CC(C)(/C=C\c1ccc(F)cc1)COCc1ccc(F)c(Oc2ccccc2)c1 [Compound 5, 3,3-dimethyl-1-(4-fluorophenyl)-4-(4-fluoro-3-phenoxybenzyloxy)but-1-ene] | < 50 | < 50 | < 50 | < 50 | < 50 | < 50 | < 50 | < 50 | < 50 |  |  |  |  |  |  |  |  |  |
| CCC(C)(/C=C\c1ccc(Cl)cc1)COCc1cccc(Oc2ccccc2)c1 (stereo not drawn) [Compound 26, 3-Ethyl-3-methyl-1-(4-chlorophenyl)-4-(3-phenoxybenzyloxy)but-1-ene] | < 50 | < 50 | < 50 | < 50 | < 50 | < 50 | < 50 | < 50 | < 50 |  |  |  |  |  |  |  |  |  |
| CC(C)(CCc1ccc(Cl)cc1)COCc1cccc(Oc2ccccc2)c1 [Compound 34, 3,3-dimethyl-1-(4-chlorophenyl)-4-(3-phenoxybenzyloxy)butane] | < 50 | < 50 | < 50 | 50 to 79 | < 50 | < 50 | 80 to 100 | 80 to 100 | < 50 |  |  |  |  |  |  |  |  |  |
| CCOc1ccc(/C=C/C(C)(C)COCc2ccc(F)c(Oc3ccccc3)c2)cc1 [Compound 10, 3,3-Dimethyl-1-(4-ethoxyphenyl)-4-(4-fluoro-3-phenoxybenzyloxy)but-1-ene] | < 50 | 50 to 79 | < 50 | < 50 | 50 to 79 | 50 to 79 | 80 to 100 | 80 to 100 | < 50 |  |  |  |  |  |  |  |  |  |
| CC(C)(C=Cc1cccc(F)c1)COCc1cccc(Oc2ccccc2)c1 [Compound 17, 3,3-Dimethyl-1-(3-fluorophenyl)-4-(3-phenoxybenzyloxy)but-1-ene] | < 50 | < 50 | < 50 | < 50 | < 50 | < 50 | 80 to 100 | 80 to 100 | < 50 |  |  |  |  |  |  |  |  |  |
| Cc1ccc(C=CC(C)(C)COCc2ccc(F)c(Oc3ccccc3)c2)cc1 [Compound 8, 3,3-Dimethyl-1-(4-methylphenyl)-4-(4-fluoro-3-phenoxybenzyloxy)but-1-ene] | 80 to 100 | 80 to 100 | 50 to 79 | < 50 | 80 to 100 | 80 to 100 | 80 to 100 | 80 to 100 | 80 to 100 |  |  |  |  |  |  |  |  |  |
| Clc1ccc(/C=C\C2(COCc3cccc(Oc4ccccc4)c3)CC2)cc1 [Compound 23, 1-[2-(4-chlorophenyl)ethen-1-yl]-1-(3-phenoxybenzyloxymethyl)cyclopropane] | < 50 | < 50 | < 50 | < 50 | < 50 | < 50 | < 50 | 80 to 100 | 80 to 100 |  |  |  |  |  |  |  |  |  |
| CC(C)(/C=C/c1ccc(C(F)(F)F)cc1)COCc1cccc(Oc2ccccc2)c1 [Compound 12, 3,3-dimethyl-1-(4-trifluoromethylphenyl)-4-(3-phenoxybenzyloxy)but-1-ene] | < 50 | 50 to 79 | 50 to 79 | < 50 | < 50 | < 50 | < 50 | 80 to 100 | 80 to 100 |  |  |  |  |  |  |  |  |  |
| CC(C)(/C=C\c1ccccc1)COCc1ccc(F)c(Oc2ccccc2)c1 [Compound 21, 3,3-Dimethyl-1-phenyl-4-(4-fluoro-3-phenoxybenzyloxy)but-1-ene] |  |  |  |  |  |  |  |  |  | < 50 | < 50 | < 50 | < 50 | < 50 | < 50 | < 50 | 80 to 100 | < 50 |
